Laboratory results: patent publication US11759518B2, “Medicine for treating cancer by administering a toll-like receptor agonist and LAG-3 IgG fusion protein” (NEC CORPORATION, priority 2016, dated 2023)

Experiments:
[1] = test system: P815 tumor cells; test: Suppression of tumor growth by immunoadjuvant combination, P815 model; type: in vivo, mouse; details: DBA/2 mice with P815 tumor, PIA CTL i.v. Day 7
Text: The following substances were used as adjuvants.
Poly I:C (TLR3 agonist) (Invivogen, SanDiego, USA)
RIBOXXOL (TLR3 agonist) (Riboxx, Radebeul, Germany)
MPL (TLR4 agonist) (Invivogen, SanDiego, USA)
Imiquimod (TLR7/8 agonist) (Invivogen, SanDiego, USA)
CpG (TLR9 agonist) (Invivogen, SanDiego, USA)
LAG-3Ig (Adipogen, SanDiego, USA)
P815 tumor cells were subcutaneously inoculated to DBA/2 mice in an amount of 5×10^5 cells per mouse to prepare cancer model mice. The day of inoculation was specified as Day 0. On Day 7, PIA CTL (2.5×10^5 cells per mouse) were intravenously injected. Day 8 and Day 15, an admixture of PIA peptide (50 μg per mouse) and an adjuvant in PBS was subcutaneously injected. Mice were divided into 9 groups each consisting of 4 or 5 mice and the following adjuvants were used respectively.
Group 1: PIA peptide alone (control)
(§1) Group 2: Poly I:C (50 μg/mouse)
Group 3: Poly I:C (50 μg/mouse)+LAG-3Ig (1 μg/mouse)
Group 4: No PIA peptide, Poly I:C (50 μg/mouse)+LAG-3Ig (1 μg/mouse) alone
Group 5: RIBOXXOL (100 μg/mouse) Group 6: RIBOXXOL (100 μg/mouse)+LAG-3Ig (1 μg/mouse)
Group 7: MPL (10 μg/mouse)+LAG-3Ig (1 μg/mouse) Group 8: Imiquimod (50 μg/mouse)+LAG-3Ig (1 μg/mouse)
Group 9: CpG (10 μg/mouse)+LAG-3Ig (1 μg/mouse)

[2] = test system: P815 cells (DBA/2mouse-derived mouse mastocytoma); test: Comparison of adjuvants in a cancer vaccine with PIA peptide, tumor size and survival; type: in vivo; details: DBA/2 mice with P815 tumor, 5 mice per group; PIA CTL i.v. Day 8; adjuvant admixed with PIA peptide 50 μg per mouse s.c. Day 9 and Day 16
Text: In accordance with the protocol shown in FIG. 1, the effects of adjuvants in cancer vaccines using a cancer-antigen derived peptide were compared.
As cancer model mice, DBA/2 mice, to which P815 cells (DBA/2mouse-derived mouse mastocytoma) were grafted, were put in use.
As a cancer-antigen derived peptide, a peptide (hereinafter referred to as “PIA peptide”) consisting of a partial sequence of PIA protein was used, which is a tumor antigen of P815 tumor and known to be restrictively presented by an MHC H-2Ld. The amino acid sequence of PIA peptide are represented by LPYLGWLVF (SEQ. ID No: 40).
As PIA CTL, a T cell expressing a T cell receptor and recognizing PIA peptide was used. […] Based on the positive ratio, the number of PIA-CTL cells was determined and administered.
As the adjuvants, the following substances were used.
P815 tumor cells were subcutaneously inoculated to DBA/2 mice in an amount of 5×10^5 cells per mouse. The day of inoculation was specified as Day 0. On Day 8, PIA CTL (2.5×10^5 cells per mouse) were intravenously injected. On Day 9 and Day 16, an admixture of PIA peptide (50 μg per mouse) and an adjuvant in PBS was subcutaneously injected. Mice were divided into 9 groups each consisting of 5 mice and the following adjuvants were used, respectively.
Group 2: IFA (50 μL/mouse)
Group 3: PT (1×10^8/mouse)
Group 4: Poly I:C (50 μg/mouse) […]

[3] = test system: B16-F10 melanoma cells; test: Tumor growth inhibitory effect of immuno-adjuvant combination in B16-F10 melanoma inoculation model mice; type: in vivo, mouse; details: C57BL/6 mice with B16-F10 melanoma
Experimental: To C57BL/6 mice, B16-F10 melanoma cells (1×10^5 cells per mouse) were subcutaneously inoculated to prepare cancer model mice. The day of inoculation was specified as Day 0. On Day 5 and Day 12, twice in total, an admixture of gp100 peptide (50 μg per mouse) and an adjuvant in PBS was subcutaneously injected. The following adjuvants were used in respective mice groups.
Group 1: IFA (50 μL/mouse)
as §1
Group 3: LAG-3Ig (1 μg/mouse)
Group 4: LAG-3Ig (1 μg/mouse)+Poly I:C (50 μg/mouse)

Substance	mice died up to Day 40 ([1]; s.c. injection Day 8 and Day 15)	number of mice survived until Day 70 without increasing tumor size [2]	effect of extending survival time ([3]; Groups 2 and 3 compared to Group 1 (IFA), Group 4 compared to Groups 1, 2 and 3)	day on which five mice all died ([3]; adjuvant admixed with gp100 peptide 50 μg s.c. Day 5 and Day 12) [days]	mice survived ([1]; read against Day 40 of the preceding sentence, adjuvant admixed with PIA peptide (unless stated) s.c. Day 8 and Day 15)
LPYLGWLVF [PIA peptide alone]	5 out of 5	–	–	–	–
Polyinosinic:polycytidylic acid [Poly I:C]	–	1	a significant effect of extending survival time was not observed	35	Four out of 5
